SMILES strings stand for the structures.

The values that follow come from paper PMC10552892, “Ebselen oxide and derivatives are new allosteric HER2 inhibitors for HER2‐positive cancers” (Molecular Oncology, 2023).

The target in assay [1] is T1, JMHER2 (peptide derived from the cytosolic juxtamembrane sequence of HER2) (Homo sapiens, UniProt P04626).
T1 construct: purchased Proteogenix
Put plainly: Surface plasmon resonance binding to immobilized HER2 juxtamembrane peptide. Conditions: analyte 5 or 10 μM, 60 s injection. The method, then: Interaction was performed on a BIAcore T200 instrument BIAcore (Cytiva Life Sciences, Marlborough, MA, USA); GE Healthcare (Little Chalfont, UK). […] Ebselen or ebselen oxide was used as an analyte and injected at 5 or 10 μM at a flow rate of 25 μL·min^−1 for 60 s.

Assay [2] relates to SKOV3. In words: Proliferation of SKOV3 cells. Conditions: ebselen oxide 7–10 μM, AG1478 5 μM. Format: cell-based, human.
In assay [3] the test system is SKBR3. In words: Incucyte proliferation, single agents and combinations, SKBR3. Format: cell-based. To be noted: Homo sapiens, SK-BR-3, 96 h; read-out: Reduction/inhibition of cell proliferation. The method, then:
(A–C) Proliferation curves of HER2‐positive (SKBR3, A; BT474, B; NCI‐N87, C) cancer cell lines treated or not with ebselen oxide (10 μM), lapatinib (10–1000 nM), or combination of these agents, as indicated. Proliferation was assessed overtime by Incucyte during 4 days. Data are mean ± SD (n = 8–12) of a representative experiment out of 4 (A), 3 (B), or 2 (C) independent experiments. […] Proliferation was assessed by Incucyte during 4 days. […] Scale bars are […].

The subject of assay [4] is MDA-MB-231. Put plainly: MTT proliferation assay, MDA-MB-231. Format: cell-based, human. Conditions: 10 μM. The method, then:
(§1) Fig. 2 Ebselen oxide inhibits HER2 activation, cell proliferation, and anchorage‐independent growth of HER2^+ breast cancer cells. […] Blot and quantification of a representative experiment are shown out of 4 (A), 5 (B), or 2 (C) independent experiments. (D–F) Proliferation curves of HER2‐positive (SKBR3, D or BT474, E) or HER2‐negative (MDA‐MB‐231, F) breast cancer cell lines treated with vehicle or 10 μM ebselen oxide assessed by MTT assay. […] (G–I) Anchorage‐independent growth of SKBR3 (G), BT474 (H), or MDA‐MB‐231 (I) cells treated with vehicle or 10 μM ebselen oxide. […] Scale bars are […].

Assay [5] relates to SKBR3. In words: MTT proliferation assay, SKBR3. It is filed as cell-based, human. To be noted: 10 μM. The method, then: as §1

Consider `O=C1c2ccccc2[Se](=O)N1c1ccccc1` (centres unmarked) [Ebselen oxide, ebselen oxide], for which the “Direct binding to JMHER2 (SPR)” value in assay [1] is reported as “directly bind”. In assay [2], the “Effect on proliferation” value is reported as “reduced proliferation”. Moreover, the inhibition at 10 µM in assay [3] was determined as 64%. Also, the “Effect on proliferation rate” value in assay [4] was “did not reduce”. For the same compound, in assay [5], the “Reduction of proliferation rate” value is listed as 35%.
